From patent publication US8785499B2 (priority 2009, dated 2014)

What was measured:
baNadD = baNadD (Bacillus anthracis, UniProt C3L5T6); assay: biochemical; format: biochemical; conditions: for inhibition at 50 µM: read-out: INHIBITION (%) B. anthracis; for IC50: IC50 baNadD
ecNadD = ecNadD (Escherichia coli (strain K12), UniProt P0A752); assay: biochemical; format: biochemical; conditions: for IC50: IC50 ecNadD; for inhibition at 100 µM: read-out: INHIBITION (%) E. coli

Sequence of baNadD (C3L5T6 whole entry, looked up): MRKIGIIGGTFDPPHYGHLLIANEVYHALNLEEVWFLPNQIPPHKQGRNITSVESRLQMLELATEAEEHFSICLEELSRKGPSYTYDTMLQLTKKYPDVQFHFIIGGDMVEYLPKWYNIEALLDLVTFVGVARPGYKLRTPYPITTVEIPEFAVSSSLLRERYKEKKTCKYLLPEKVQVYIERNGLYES

SMILES | […]. anthracis (baNadD) [%] | […]. coli (ecNadD) [%] | also measured
O=C(NCc1ccc(C(=O)O)cc1)Nc1ccc(Br)cc1Cl [compound 245] | 0 | 0 | 
O=C(CCC(=O)Nc1ccccc1Cl)NN=Cc1ccc(C=NNC(=O)CCC(=O)Nc2ccccc2Cl)cc1 [1—02—1, N-(2-Chloro-phenyl)-3-(4-{[3-(2-chloro-phenylcarbamoyl)-propionyl]-hydrazonomethyl}-benzylidene-hydrazinocarbonyl)-propionamide] |  |  | baNadD inhibition (qualitative) (baNadD): effective; improvement in activity compared to precursors 1_13 and 1_15 (baNadD): more than 10 fold; ecNadD inhibition (qualitative) (ecNadD): effective; IC50 (ecNadD): 13 ± 2 µM
CCOc1ccc(S(=O)(=O)Nc2cccnc2)cc1 [compound 126] | 22 | 7 | 
O=C(Nc1ncccc1Cl)c1ccc(Br)cc1 [compound 137] | 7 | 6 | 
COc1ccc(N(CC(=O)O)S(=O)(=O)c2ccc(C)cc2)cc1Cl [compound 192] | 0 | 1 | 
Oc1ccc(Br)cc1/C=N/Nc1nnn[nH]1 [compound 060] | 0 | 15 | 
O=C(CSc1ncnc2ccccc12)Nc1ccc2nsnc2c1 [compound 228] | 28 | 0 | 
O=C(Cn1cnc2ccccc2c1=O)Nc1cccc(C(=O)O)c1 [compound 280] | 0 | 0 | 
Cc1cc(C)cc(N/C=C2\C(=O)Nc3ccccc32)c1 [15_23] |  |  | inhibition at 50 µM (baNadD): 32%; inhibition at 100 µM (ecNadD): 10%
O=C1Nc2ccccc2/C1=C/Nc1cccc(Cl)c1 [15_07] |  |  | inhibition at 50 µM (baNadD): 45%; inhibition at 100 µM (ecNadD): 15%
O=C(O)c1cc(/N=C/c2ccc3c(c2)OCO3)ccc1O [compound 119] | 0 | 8 | 
Nc1nonc1C(=O)NCCNS(=O)(=O)Cc1ccccc1 [compound 051] | 0 | 16 | 
NS(=O)(=O)c1ccc(NC(=S)Nc2ccc(Cl)cc2F)cc1 [compound 084] | 0 | 11 | 
Cc1cccc(N/C=C2\C(=O)Nc3ccccc32)c1C [15_10] |  |  | inhibition at 50 µM (baNadD): 26%; inhibition at 100 µM (ecNadD): 13%
O=C(O)CCC(C(=O)O)N1C(=O)c2cc(Cl)c(Cl)cc2C1=O (stereo not drawn) [compound 029] | 0 | 22 | 
O=C(O)c1ccccc1C(=O)c1cccs1 [compound 156] | 22 | 5 | 
N#CC1=C(N)OC(c2cccs2)=C(C#N)C1c1cccs1 (stereo not drawn) [compound 019] | 27 | 26 | 
O=C(CCC(=O)Nc1ccc(I)cc1)N/N=C/c1c2ccccc2cc2ccccc12 [compound 001] |  |  | IC50 (baNadD): 21 µM; inhibition at 50 µM (baNadD): 88%; IC50 (ecNadD): 15 µM; inhibition at 100 µM (ecNadD): 79%
Cc1c(Cl)cccc1N/C=C1\C(=O)Nc2ccccc21 [15_13] |  |  | inhibition at 50 µM (baNadD): 36%; inhibition at 100 µM (ecNadD): 12%
Nc1nnc(-c2cc(-c3ccc(Cl)cc3)on2)o1 [compound 183] | 7 | 3 | 
O=C(O)c1cccc(COc2ccc(CO)cc2Cl)c1 [compound 175] | 0 | 3 | 
NS(=O)(=O)c1ccc(NC(=S)NCc2ccccc2)cc1 [compound 085] | 0 | 11 | 
O=C(O)C1C2C=CC(C2)C1C(=O)Nc1ccc(Cl)c(Cl)c1 (stereo not drawn) [compound 152] | 0 | 5 | 

SMILES | […]. anthracis (baNadD) [%] | […]. coli (ecNadD) [%] | also measured
O=C(CNS(=O)(=O)c1ccc(Br)s1)NCCC1=CCCCC1 [compound 289] | 4 | 0 | 
O=[N+]([O-])c1cc2c(cc1/C=N/Nc1nnn[nH]1)OCO2 [compound 063] | 81 | 14 | 
O=c1[nH]c2ccc(NC(=S)Nc3ccccc3)cc2[nH]1 [compound 083] | 0 | 11 | 
O=C(O)c1ccccc1S(=O)(=O)c1ccccc1C(=O)O [compound 130] | 28 | 7 | 
Cc1ccc(NS(=O)(=O)c2coc(C(N)=O)c2)cc1F [compound 243] | 0 | 0 | 
Cc1ccc(-c2nnc(SCC(=O)O)o2)cc1 [compound 201] | 25 | 0 | 
Cc1ccc(F)cc1NC(=O)CSCC(=O)O [compound 025] | 55 | 23 | 
O=C(CSc1ccccc1)Nc1cc(C(=O)O)cc(C(=O)O)c1 [compound 236] | 0 | 0 | 
Brc1cnc2nc(/C=C/c3ccccc3)[nH]c2c1 [compound 006] | 34 | 62 | 
O=C(N/N=C/c1ccc(Br)cc1)c1[nH]ncc1Br [compound 256] | 0 | 0 | 
O=C(CSc1nc2ccccc2[nH]1)Nc1nncs1 [compound 197] | 34 | 0 | 
Nc1c(C(=O)Nc2ccc(F)c(F)c2)sc2nc(-c3ccncc3)ccc12 [compound 287] | 0 | 0 | 
NC(=S)NNC(=O)c1ccccc1C(=O)O [compound 136] | 64 | 6 | 
O=C1Nc2ccccc2/C1=C/NCCc1ccccc1 [15_32] |  |  | inhibition at 50 µM (baNadD): 4%; inhibition at 100 µM (ecNadD): 7%
Nc1nnc(SCC(=O)Nc2ccc(Cl)c(Cl)c2)s1 [compound 263] | 0 | 0 | 
O=C(O)C1=C(c2cc([N+](=O)[O-])ccc2O)N=S=N1 [compound 159] | 1 | 4 | 
Cc1ccc(C)c(N/C=C2\C(=O)Nc3ccccc32)c1 [15_04] |  |  | inhibition at 50 µM (baNadD): 26%; inhibition at 100 µM (ecNadD): 18%
CC(=NNC(=O)COc1ccc(C)cc1)C(=O)O [compound 182] | 14 | 3 | 
CC(=O)Nc1ccc(/N=C/c2ccc([N+](=O)[O-])cc2)cc1 [compound 230] | 0 | 0 | 
Cc1ccc2nc(NC(=S)NC(=O)c3cccs3)sc2c1 [compound 155] | 26 | 5 | 
Nc1nc(-c2ccc(NC(=O)c3ccc(Cl)cc3)cc2)cs1 [compound 022] | 31 | 24 | 
O=C(NNC(=O)C1CC=CCC1C(=O)O)c1cccc([NH2+][O-])c1 (stereo not drawn) [compound 171] | 24 | 3 | 
NC(=O)c1sc2nc(-c3ccc(F)cc3)cc(-c3ccccc3)c2c1N [03_21] |  |  | inhibition at 50 µM (baNadD): 58%; inhibition at 100 µM (ecNadD): 22%

SMILES | […]. anthracis (baNadD) [%] | […]. coli (ecNadD) [%] | also measured
Nc1ccc(/C=C/c2cccc(C(=O)O)n2)cc1 [compound 054] | 27 | 15 | 
O=C1Nc2ccccc2/C1=C/NCc1cccnc1 [15_05] |  |  | inhibition at 50 µM (baNadD): 23%; inhibition at 100 µM (ecNadD): 17%
Nc1nn(S(=O)(=O)c2ccccc2)cc1-c1ccc(Cl)cc1 [compound 237] | 0 | 0 | 
Clc1ccc(CNc2nc[nH]n2)cc1 [compound 305] | 0 | 0 | 
CCS(=O)(=O)CCSc1nc2ccccc2o1 [compound 094] | 0 | 10 | 
O=C(O)CNC(=S)N(Cc1ccccc1)Cc1cccs1 [compound 154] | 0 | 5 | 
CC(C)c1ccc(N/C=C2\C(=O)Nc3ccccc32)cc1 [15_30] |  |  | inhibition at 50 µM (baNadD): 42%; inhibition at 100 µM (ecNadD): 7%
Cc1ccc(SCc2cc(=O)n3ncnc3[nH]2)cc1 [compound 231] | 0 | 0 | 
Cc1ccc(N/C=C2\C(=O)Nc3ccccc32)c(Cl)c1 [15_19] |  |  | inhibition at 50 µM (baNadD): 14%; inhibition at 100 µM (ecNadD): 11%
O=C(O)c1ccc(/C=N/NC(=O)c2cc3cc(Br)ccc3o2)cc1 [compound 172] | 32 | 3 | 
Nc1c(C(=O)Nc2ccc(F)c(Cl)c2)sc2nc(-c3ccncc3)ccc12 [03_22] |  |  | IC50 (baNadD): 39 µM; inhibition at 50 µM (baNadD): 83%; IC50 (ecNadD): 100 µM; inhibition at 100 µM (ecNadD): 21%
O=C(O)CSc1nc2ccccc2n1CC(=O)O [compound 169] | 0 | 3 | 
Cc1nnc(SCC(=O)Nc2ccc(Cl)cn2)s1 [compound 088] | 0 | 11 | 
Oc1c(Cl)cc(Cl)cc1/C=N/c1nc[nH]n1 [compound 038] | 0 | 20 | 
O=C1Nc2ccccc2/C1=C/Nc1cccnc1 [15_15] |  |  | inhibition at 50 µM (baNadD): 10%; inhibition at 100 µM (ecNadD): 12%
O=[N+]([O-])c1ccc(/C=N\NS(=O)(=O)c2ccc(Cl)cc2)o1 [compound 057] | 28 | 15 | 
Cc1cc(OCC(=O)Nc2ccc(S(N)(=O)=O)cc2)ccc1Cl [compound 099] | 2 | 10 | 
O=C(CCS(=O)(=O)c1ccc(Br)s1)NCc1cccs1 [compound 285] |  | 0 | 
Nc1n[nH]c(N)c1/N=N/c1ccccc1 [compound 272] | 23 |  | 
Sc1nnc(-c2ccncc2)n1-c1ccccc1Cl [compound 042] |  | 19 | 
Nc1n[nH]c(N)c1/N=N/c1ccccc1 [compound 271] |  | 0 | 
O=C(O)CN(N=Cc1cccc2ccccc12)C(=O)CCC(=O)Nc1ccccc1Cl [1—02—3, {N-[3-(2-Chloro-phenylcarbamoyl)-propionyl]-N′-naphthalen-1-ylmethylene-hydrazino}-acetic acid] |  |  | IC50 (baNadD): > 200 µM
O=C(O)CNN=C(C(=O)CCC(=O)Nc1ccccc1Cl)c1ccc(C=NN(CC(=O)O)C(=O)CCC(=O)Nc2ccccc2Cl)cc1 [1—02—2, {N′-(4-{Carboxymethyl-[3-(2-chloro-phenylcarbamoyl)-propionyl]-hydrazonomethyl}-benzylidene)-N-[3-(2-chloro-phenylcarbamoyl)-propionyl]-hydrazino}-acetic acid] |  |  | inhibitory activity against baNadD (baNadD): did not inhibit
